Target: T1, BTK protein (Homo sapiens, UniProt Q06187)
T1 construct: endogenous in cells; host or cells: TMD-8 cells
Experiment: Measurement of BTK protein degradation ability in TMD-8 cells (Western blotting)
Type: cell-based
Details: harvested after 24 hours; for BTK degradation (%) 10 nM: compound 10 nM; for BTK degradation (%) 100 nM: compound 100 nM; for BTK degradation (%) 1 nM: compound 1 nM
Description: TMD-8, RAMOS, or 293T BTK MUT (C481S) cells were treated with the synthesized compounds, and then the amount of BTK protein present in the cells was measured using Western blotting detection. The protocol for the experiment conducted using TMD-8 cells was as follows:
[Culture] TMD-8 cells were resuspended in RPMI1640 MEDIUM (Hyclone, SH30027.01), 10% FBS (Hyclone, SV30207.02), and 1% Penicillin-streptomycin (Welgene, LS 202-02) media, and 1 mL of this suspension was seeded in a 12-well plate at a cell concentration of 1×10^6/mL.
[Compound treatment] The 12-well plate was treated as follows: The 10 mM stock was serially diluted 1/10 with DMSO (3 μL+27 μL DMSO), and cells were treated with compounds at final concentrations of 0.1, 1, 10 μM or 0.0001, 0.001, 0.01, 0.1 μM, and harvested after 24 hours. In the negative control group, DMSO diluted 1/10 was added to the media. (3 μL DMSO+27 μL media)
[Harvest] Each well was pipetted with a 1 mL pipette, collected in a 1.5 mL microtube, and centrifuged (500 g, 5 min, 4° C.). After removing the supernatant, it was washed with PBS and centrifuged again (500 g, 5 min, 4° C.). The supernatant was removed and the pellet was collected.
[Cell lysis and Sample preparation] lysis buffer was prepared as follows: RIPA buffer (Biosesang, RC2038-050-00), 0.5 mM PMSF (SIGMA, P7626) and 1× Protease/Phosphatase Inhibitor (Cell signaling, 5872S) were added at 60-70 μL per well and left on ice for 30 minutes. (Vortexing at 0 and 30 minutes, respectively), followed by sonication (10 seconds pulse, 30 seconds rest, 5 cycles, 70% amplification) and centrifuge (15000 g, 15 min, 4° C.). Only the supernatant was collected and transferred to a new microtube. The samples were diluted by ½ with RIPA buffer in a 96-well plate. 200 μL of the mixture A:B=50:1 of the BCA Protein Assay Kit (iNtRON, 21071) was added each, stayed at 37° C. for 30 minutes, and cooled for 10 minutes. Afterwards, absorbance was measured at 562 nm using BioTek's SYNERGY H1 microplate reader. After making a sample by quantifying the protein using the measured value, it was boiled at 70° C. for 10 minutes. The sample buffer used at this time was a mixture of NuPAGE or Bolt 4× sample buffer (Invitrogen) and each 10× sample reducing agent according to the gel to be used. RIPA buffer was used for protein dilution.
[Western blotting detection method] The same amount of sample was loaded on NuPAGE or Bolt Bis-tris 4-12% gradient gel and run (200 V, 35 minutes). It was transferred to a […] NC membrane using Trans-blot Turbo (BIO-RAD) (1.3 A constant, 25 V limit, 15 minutes). For blocking, skim milk or Intercept Blocking Buffer (LI-COR, 927-60001): 0.1% TBST=1:1 was used at room temperature for 1 hour. Anti BTK Rabbit (1:1,000 in 5% skim milk/0.2% TBST, size: 77 kDa, Cell signaling Technology) was reacted at 4° C. for 16 hours or at room temperature for 2 hours. Anti GAPDH Rabbit (1:10,000 in 5% BSA/0.2% TBST, size: 36 kDa, GENETEX) and Anti β-actin mouse (1:10,000 in 5% BSA/0.2% TBST, RT, size: 43 kDa, GENETEX) were reacted at room temperature for 1 hour or 3 hours. The samples were washed 3 times with 0.5% TBST for 5 minutes each. Secondary antibodies, Anti-Rabbit IgG (1:5,000 in 5% Skim milk/TBST, CST), IRDye® 800CW Goat anti-Rabbit IgG Secondary Antibody (1:10,000 in 5% skim/TBST, RT 45 min), IRDye® 680RD Goat anti-Mouse IgG Secondary Antibody (1:10,000 in 5% skim/TBST, RT 45 min) were added depending on each sample and reacted for 45 minutes on a rocker at room temperature. The samples were washed 5 times with 0.5% TBST for 5 minutes each and detected with LI-COR's Odyssey. At this time, BTK was detected using SuperSignal West Pico PLUS Chemiluminescent Substrate or SuperSignal West femto Maximum Sensitivity Substrate, and house-keeping genes were detected as is.

T1 sequence (Q06187 whole entry): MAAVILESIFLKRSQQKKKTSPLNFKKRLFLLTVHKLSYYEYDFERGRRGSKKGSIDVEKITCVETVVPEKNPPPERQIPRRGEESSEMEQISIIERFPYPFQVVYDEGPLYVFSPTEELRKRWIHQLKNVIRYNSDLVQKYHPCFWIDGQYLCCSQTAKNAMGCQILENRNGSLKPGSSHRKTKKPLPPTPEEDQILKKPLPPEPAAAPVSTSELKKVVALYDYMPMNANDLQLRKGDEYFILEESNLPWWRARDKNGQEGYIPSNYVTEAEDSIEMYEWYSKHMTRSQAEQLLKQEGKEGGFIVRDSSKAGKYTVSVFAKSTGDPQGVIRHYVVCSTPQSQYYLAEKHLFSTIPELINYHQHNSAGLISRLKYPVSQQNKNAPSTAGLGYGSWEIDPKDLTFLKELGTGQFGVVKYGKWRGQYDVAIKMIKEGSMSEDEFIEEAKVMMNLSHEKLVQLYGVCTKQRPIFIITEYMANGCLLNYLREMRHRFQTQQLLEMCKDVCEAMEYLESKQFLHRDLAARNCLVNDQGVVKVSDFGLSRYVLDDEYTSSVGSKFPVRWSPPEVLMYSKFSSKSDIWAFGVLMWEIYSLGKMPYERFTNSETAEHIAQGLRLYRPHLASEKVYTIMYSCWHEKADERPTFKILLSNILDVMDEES

| Compound | BTK degradation (%) 10 nM | BTK degradation (%) 100 nM | BTK degradation (%) 1 nM |
| --- | --- | --- | --- |
| Cc1cc(-c2ccnc(Nc3ccc4c(c3)CN(CC3CCN(c5ccc6c(c5)C(=O)N(C5CCC(=O)NC5=O)C6=O)CC3)CC4)n2)ccc1CNC(=O)N1CC(OC(C)C)C1 (stereo not drawn) [Example 1, N-(4-(2-((2-((1-(2-(2,6-dioxopiperidin-3-yl)-1,3-dioxoisoindolin-5-yl)piperidin-4-yl)methyl)-1,2,3,4-tetrahydroisoquinolin-7-yl)amino)pyrimidin-4-yl)-2-methylbenzyl)-3-isopropoxyazetidine-1-carboxamide] | 92% | 97.5% |  |
| Cc1cc(-c2ccnc(Nc3ccc4c(c3)CN(CC3CCN(c5ccc6c(c5)C(=O)N(C5CCC(=O)NC5=O)C6=O)CC3)CC4)n2)ccc1CNC(=O)c1cnn(C(C)(C)C)c1 (stereo not drawn) [Example 2, 1-(tert-butyl)-N-(4-(2-((2-((1-(2-(2,6-dioxopiperidin-3-yl)-1,3-dioxoisoindolin-5-yl)piperidin-4-yl)methyl)-1,2,3,4-tetrahydroisoquinolin-7-yl)amino)pyrimidin-4-yl)-2-methylbenzyl)-1H-pyrazole-4-carboxamide] | 84.5% | 94% |  |
| Cc1cc(-c2ccnc(Nc3ccc4c(c3)CN(CC3CCN(c5ccc6c(c5)C(=O)N(C5CCC(=O)NC5=O)C6=O)CC3)CC4)n2)ccc1CNC(=O)c1cn(C(C)(C)C)nn1 (stereo not drawn) [Example 3, 1-(tert-butyl)-N-(4-(2-((2-((1-(2-(2,6-dioxopiperidin-3-yl)-1,3-dioxoisoindolin-5-yl)piperidin-4-yl)methyl)-1,2,3,4-tetrahydroisoquinolin-7-yl)amino)pyrimidin-4-yl)-2-methylbenzyl)-1H-1,2,3-triazole-4-carboxamide] | 84% | 93% |  |
| Cc1c(NC(=O)N2CC(OC(C)C)C2)cc(F)cc1-c1ccnc(Nc2ccc3c(c2)CN(CC2CCN(c4ccc5c(c4)C(=O)N(C4CCC(=O)NC4=O)C5=O)CC2)CC3)n1 (stereo not drawn) [Example 4, N-(3-(2-((2-((1-(2-(2,6-dioxopiperidin-3-yl)-1,3-dioxoisoindolin-5-yl)piperidin-4-yl)methyl)-1,2,3,4-tetrahydroisoquinolin-7-yl)amino)pyrimidin-4-yl)-5-fluoro-2-methylphenyl)-3-isopropoxyazetidine-1-carboxamide] | −3.5% | 29% |  |
| Cc1c(NC(=O)c2cnn(C(C)(C)C)c2)cc(F)cc1-c1ccnc(Nc2ccc3c(c2)CN(CC2CCN(c4ccc5c(c4)C(=O)N(C4CCC(=O)NC4=O)C5=O)CC2)CC3)n1 (stereo not drawn) [Example 5, 1-(tert-butyl)-N-(3-(2-((2-((1-(2-(2,6-dioxopiperidin-3-yl)-1,3-dioxoisoindolin-5-yl)piperidin-4-yl)methyl)-1,2,3,4-tetrahydroisoquinolin-7-yl)amino)pyrimidin-4-yl)-5-fluoro-2-methylphenyl)-1H-pyrazole-4-carboxamide] | −12% | −7% |  |
| Cc1c(NC(=O)c2cn(C(C)(C)C)nn2)cc(F)cc1-c1ccnc(Nc2ccc3c(c2)CN(CC2CCN(c4ccc5c(c4)C(=O)N(C4CCC(=O)NC4=O)C5=O)CC2)CC3)n1 (stereo not drawn) [Example 6, 1-(tert-butyl)-N-(3-(2-((2-((1-(2-(2,6-dioxopiperidin-3-yl)-1,3-dioxoisoindolin-5-yl)piperidin-4-yl)methyl)-1,2,3,4-tetrahydroisoquinolin-7-yl)amino)pyrimidin-4-yl)-5-fluoro-2-methylphenyl)-1H-1,2,3-triazole-4-carboxamide] | −2.5% | 10% |  |
| Cc1cc(-c2ccnc(Nc3ccc(N4CCN(CC5CCN(c6ccc7c(c6)C(=O)N(C6CCC(=O)NC6=O)C7=O)CC5)CC4)cc3)n2)ccc1CNC(=O)N1CC(OC(C)C)C1 (stereo not drawn) [Example 7, N-(4-(2-((4-(4-((1-(2-(2,6-dioxopiperidin-3-yl)-1,3-dioxoisoindolin-5-yl)piperidin-4-yl)methyl)piperazin-1-yl)phenyl)amino)pyrimidin-4-yl)-2-methylbenzyl)-3-isopropoxyazetidine-1-carboxamide] | 90% | 98.5% |  |
| Cc1cc(-c2ccnc(Nc3ccc(N4CCN(CC5CCN(c6ccc7c(c6)C(=O)N(C6CCC(=O)NC6=O)C7=O)CC5)CC4)cc3)n2)ccc1CNC(=O)c1cnn(C(C)(C)C)c1 (stereo not drawn) [Example 8, 1-(tert-butyl)-N-(4-(2-((4-(4-((1-(2-(2,6-dioxopiperidin-3-yl)-1,3-dioxoisoindolin-5-yl)piperidin-4-yl)methyl)piperazin-1-yl)phenyl)amino)pyrimidin-4-yl)-2-methylbenzyl)-1H-pyrazole-4-carboxamide] | 89.5% | 97.5% |  |
| Cc1cc(-c2ccnc(Nc3ccc(N4CCN(CC5CCN(c6ccc7c(c6)C(=O)N(C6CCC(=O)NC6=O)C7=O)CC5)CC4)cc3)n2)ccc1CNC(=O)c1cn(C(C)(C)C)nn1 (stereo not drawn) [Example 9, 1-(tert-butyl)-N-(4-(2-((4-(4-((1-(2-(2,6-dioxopiperidin-3-yl)-1,3-dioxoisoindolin-5-yl)piperidin-4-yl)methyl)piperazin-1-yl)phenyl)amino)pyrimidin-4-yl)-2-methylbenzyl)-1H-1,2,3-triazole-4-carboxamide] | 76.5% | 96.5% |  |
| Cc1cc(-c2ccnc(Nc3ccc(N4CCN(CC5CCN(c6ccc7c(n6)CN(C6CCC(=O)NC6=O)C7=O)CC5)CC4)cc3)n2)ccc1CNC(=O)N1CC(OC(C)C)C1 (stereo not drawn) [Example 10, N-(4-(2-((4-(4-((1-(6-(2,6-dioxopiperidin-3-yl)-5-oxo-6,7-dihydro-5H-pyrrolo[3,4-b]pyridin-2-yl)piperidin-4-yl)methyl)piperazin-1-yl)phenyl)amino)pyrimidin-4-yl)-2-methylbenzyl)-3-isopropoxyazetidine-1-carboxamide] | 94.5% | 98.5% | 56% |
| Cc1cc(-c2ccnc(Nc3ccc(N4CCN(CC5CN(c6ccc7c(c6)C(=O)N(C6CCC(=O)NC6=O)C7=O)C5)CC4)cc3)n2)ccc1CNC(=O)N1CC(OC(C)C)C1 (stereo not drawn) [Example 11, N-(4-(2-((4-(4-((1-(2-(2,6-dioxopiperidin-3-yl)-1,3-dioxoisoindolin-5-yl)azetidin-3-yl)methyl)piperazin-1-yl)phenyl)amino)pyrimidin-4-yl)-2-methylbenzyl)-3-isopropoxyazetidine-1-carboxamide] | 93.5% | 98.5% | 60% |

From patent US20250041429A1, “COMPOUND HAVING BTK PROTEIN DEGRADATION ACTIVITY, AND MEDICAL USES THEREOF” (UBIX THERAPEUTICS, INC., priority 2021, published 2025)
